From patent publication US20220306695A1, “COMPSTATIN ANALOGUES AND THEIR MEDICAL USES” (priority 2019, published 2022)
Read-outs that look alike come from different tables or passages of the source. Positions of bridges follow the written chain, without caps; N, C: chain ends. Non-standard residues stand in square brackets, D forms with d. Residues, ends and D or L forms follow the SMILES beside them. Trp(1-Me) = Cn1cc(C[C@H](N)C(=O)O)c2ccccc21; Sar = CNCC(=O)O

Columns and labels:
[1] = tested on: classical complement pathway; assay: In vitro haemolysis assay (inhibition of classical complement pathway); assay type: cell-based, human; settings: human serum, sensitized sheep red blood cells
How it was run: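 Serially diluted compound (9 points) was preincubated 15 min at room temperature with diluted human serum, titrated per batch to give 70-90% maximal haemolysis, in Tris/casein buffer pH 7.4 with Mg2+/Ca2+. Antibody-sensitized sheep erythrocytes were then added for 30 min at 37° C, and the reaction was stopped with EDTA. Haemolysis was read at A405, with IC50 from 4PL fit.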

[2] = Solubility test at 10 mg/mL (visual inspection and light scattering); assay type: physicochemical; settings: for Solubility, Condition 1 Acetate pH 4: 10 mg/mL compound in 100 mM acetate pH 4; for Solubility, Condition 2 Acetate pH 5: 10 mg/mL compound in 100 mM acetate pH 5; for Solubility, Condition 3 Phosphate pH 6: 10 mg/mL compound in 100 mM phosphate pH 6; for Solubility, Condition 4 Phosphate pH 7: 10 mg/mL compound in 100 mM phosphate pH 7; for Solubility, Condition 5 Phosphate pH 7.5: 10 mg/mL compound in 100 mM phosphate pH 7.5
[3] = Table 3, read-out: IC50[nM], in vitro analysis of inhibition of hemolysis

CC[C@H](C)[C@@H]1NC(=O)[C@@H](NC(=O)[C@H](Cc2ccccc2)NC(=O)[C@H](CCC(=O)O)NC(=O)[C@H](CO)NC(C)=O)CSSC[C@@H](C(=O)N[C@H](C(=O)N[C@@H](CCC(=O)O)C(=O)N[C@@H](C)C(N)=O)[C@@H](C)O)NC(=O)[C@H](CCCNC(=N)N)NC(=O)[C@H](Cc2c[nH]cn2)NC(=O)[C@H](CCC(=O)O)NC(=O)CN(C)C(=O)[C@H](Cc2c[nH]c3ccccc23)NC(=O)[C@H](CC(=O)O)NC(=O)[C@H](CCC(N)=O)NC(=O)[C@H](Cc2cn(C)c3ccccc23)NC1=O [Compound 77, Ac-SEFC(1)I[1-Me-Trp]QDW[Sar]EHRC(1)TEA-NH2] (Ac-SEFCI[Trp(1-Me)]QDW[Sar]EHRCTEA-NH2; disulfide 4-14)
IC50 [1, 3]: < 100 nM | Solubility, Condition 1 Acetate pH 4 [2]: − (denotes lack of solubility at the given condition, as UV absorbance at 340 nm exceeds 0.1 AU and/or it is visibly turbid or contains particles.) | Solubility, Condition 2 Acetate pH 5 [2]: − (denotes lack of solubility at the given condition, as UV absorbance at 340 nm exceeds 0.1 AU and/or it is visibly turbid or contains particles.) | Solubility, Condition 3 Phosphate pH 6 [2]: + (denotes solubility at the given condition, as determined by UV absorbance being less than 0.1 AU at 340 nm and the sample being clear when manually inspected.) | Solubility, Condition 4 Phosphate pH 7 [2]: + (denotes solubility at the given condition, as determined by UV absorbance being less than 0.1 AU at 340 nm and the sample being clear when manually inspected.) | Solubility, Condition 5 Phosphate pH 7.5 [2]: + (denotes solubility at the given condition, as determined by UV absorbance being less than 0.1 AU at 340 nm and the sample being clear when manually inspected.)

CC[C@H](C)[C@H](NC(=O)[C@H](C)NC(=O)[C@H](CO)NC(=O)[C@H](CO)NC(=O)[C@H](CCC(=O)O)NC(C)=O)C(=O)N[C@H]1CSSC[C@@H](C(=O)N[C@H](C(=O)NCC(=O)N[C@@H](C)C(=O)N[C@@H](CCC(=O)O)C(=O)N[C@@H](CO)C(N)=O)[C@@H](C)O)NC(=O)[C@H](CCCNC(=N)N)NC(=O)[C@H](Cc2c[nH]cn2)NC(=O)[C@H](CCC(=O)O)NC(=O)CNC(=O)[C@H](Cc2c[nH]c3ccccc23)NC(=O)[C@H](CC(=O)O)NC(=O)[C@H](CCC(N)=O)NC(=O)[C@H](Cc2c[nH]c3ccccc23)NC(=O)[C@H]([C@@H](C)CC)NC1=O [Compound 14] (Ac-ESSAICIWQDWGEHRCTGAES-NH2; disulfide 6-16)
IC50 [1, 3]: < 100 nM | Solubility, Condition 1 Acetate pH 4 [2]: + (denotes solubility at the given condition, as determined by UV absorbance being less than 0.1 AU at 340 nm and the sample being clear when manually inspected.) | Solubility, Condition 2 Acetate pH 5 [2]: − (denotes lack of solubility at the given condition, as UV absorbance at 340 nm exceeds 0.1 AU and/or it is visibly turbid or contains particles.) | Solubility, Condition 3 Phosphate pH 6 [2]: − (denotes lack of solubility at the given condition, as UV absorbance at 340 nm exceeds 0.1 AU and/or it is visibly turbid or contains particles.) | Solubility, Condition 4 Phosphate pH 7 [2]: + (denotes solubility at the given condition, as determined by UV absorbance being less than 0.1 AU at 340 nm and the sample being clear when manually inspected.) | Solubility, Condition 5 Phosphate pH 7.5 [2]: + (denotes solubility at the given condition, as determined by UV absorbance being less than 0.1 AU at 340 nm and the sample being clear when manually inspected.)

CC[C@H](C)[C@H](NC(=O)[C@H](C)NC(=O)[C@H](CO)NC(=O)CNC(=O)[C@H](CCC(=O)O)NC(C)=O)C(=O)N[C@H]1CSSC[C@@H](C(=O)N(C)CC(=O)N[C@@H](CCC(=O)O)C(=O)NCC(=O)N[C@@H](CCC(=O)O)C(N)=O)NC(=O)[C@H](CCCNC(=N)N)NC(=O)[C@H](Cc2c[nH]cn2)NC(=O)[C@H](CCC(=O)O)NC(=O)CNC(=O)[C@H](Cc2c[nH]c3ccccc23)NC(=O)[C@H](CC(=O)O)NC(=O)[C@H](CCC(N)=O)NC(=O)[C@H](Cc2c[nH]c3ccccc23)NC(=O)[C@H]([C@@H](C)CC)NC1=O [Compound 44] (Ac-EGSAICIWQDWGEHRC[Sar]EGE-NH2; disulfide 6-16)
IC50 [1, 3]: < 250 nM | Solubility, Condition 1 Acetate pH 4 [2]: − (denotes lack of solubility at the given condition, as UV absorbance at 340 nm exceeds 0.1 AU and/or it is visibly turbid or contains particles.) | Solubility, Condition 2 Acetate pH 5 [2]: − (denotes lack of solubility at the given condition, as UV absorbance at 340 nm exceeds 0.1 AU and/or it is visibly turbid or contains particles.) | Solubility, Condition 3 Phosphate pH 6 [2]: + (denotes solubility at the given condition, as determined by UV absorbance being less than 0.1 AU at 340 nm and the sample being clear when manually inspected.) | Solubility, Condition 4 Phosphate pH 7 [2]: + (denotes solubility at the given condition, as determined by UV absorbance being less than 0.1 AU at 340 nm and the sample being clear when manually inspected.) | Solubility, Condition 5 Phosphate pH 7.5 [2]: + (denotes solubility at the given condition, as determined by UV absorbance being less than 0.1 AU at 340 nm and the sample being clear when manually inspected.)

CC[C@H](C)[C@@H]1NC(=O)[C@@H](NC(=O)CN(C)C(=O)[C@H](CCC(=O)O)NC(=O)[C@H](CO)NC(C)=O)CSSC[C@@H](C(=O)N(C)CC(=O)N[C@@H](CCC(=O)O)C(=O)N[C@@H](C)C(N)=O)NC(=O)[C@H](CCCNC(=N)N)NC(=O)[C@H](Cc2c[nH]cn2)NC(=O)[C@H](CCC(=O)O)NC(=O)CNC(=O)[C@H](Cc2c[nH]c3ccccc23)NC(=O)[C@H](CC(=O)O)NC(=O)[C@H](CCC(N)=O)NC(=O)[C@H](Cc2cn(C)c3ccccc23)NC1=O [Compound 81] (Ac-SE[Sar]CI[Trp(1-Me)]QDWGEHRC[Sar]EA-NH2; disulfide 4-14)
IC50 [1, 3]: < 100 nM | Solubility, Condition 1 Acetate pH 4 [2]: − (denotes lack of solubility at the given condition, as UV absorbance at 340 nm exceeds 0.1 AU and/or it is visibly turbid or contains particles.) | Solubility, Condition 2 Acetate pH 5 [2]: − (denotes lack of solubility at the given condition, as UV absorbance at 340 nm exceeds 0.1 AU and/or it is visibly turbid or contains particles.) | Solubility, Condition 3 Phosphate pH 6 [2]: + (denotes solubility at the given condition, as determined by UV absorbance being less than 0.1 AU at 340 nm and the sample being clear when manually inspected.) | Solubility, Condition 4 Phosphate pH 7 [2]: + (denotes solubility at the given condition, as determined by UV absorbance being less than 0.1 AU at 340 nm and the sample being clear when manually inspected.) | Solubility, Condition 5 Phosphate pH 7.5 [2]: + (denotes solubility at the given condition, as determined by UV absorbance being less than 0.1 AU at 340 nm and the sample being clear when manually inspected.)

CC[C@H](C)[C@H](NC(C)=O)C(=O)N[C@H]1CSSC[C@@H](C(=O)N[C@@H](CCC(=O)O)C(=O)NCC(=O)N[C@@H](CCC(=O)O)C(N)=O)NC(=O)[C@H](CCCNC(=N)N)NC(=O)[C@H](Cc2c[nH]cn2)NC(=O)[C@H](CCC(=O)O)NC(=O)CNC(=O)[C@H](Cc2c[nH]c3ccccc23)NC(=O)[C@H](CC(=O)O)NC(=O)[C@H](CCC(N)=O)NC(=O)[C@H](Cc2c[nH]c3ccccc23)NC(=O)[C@H]([C@@H](C)CC)NC1=O [Compound 27] (Ac-ICIWQDWGEHRCEGE-NH2; disulfide 2-12)
IC50 [1, 3]: < 100 nM | Solubility, Condition 1 Acetate pH 4 [2]: − (denotes lack of solubility at the given condition, as UV absorbance at 340 nm exceeds 0.1 AU and/or it is visibly turbid or contains particles.) | Solubility, Condition 2 Acetate pH 5 [2]: − (denotes lack of solubility at the given condition, as UV absorbance at 340 nm exceeds 0.1 AU and/or it is visibly turbid or contains particles.) | Solubility, Condition 3 Phosphate pH 6 [2]: − (denotes lack of solubility at the given condition, as UV absorbance at 340 nm exceeds 0.1 AU and/or it is visibly turbid or contains particles.) | Solubility, Condition 4 Phosphate pH 7 [2]: + (denotes solubility at the given condition, as determined by UV absorbance being less than 0.1 AU at 340 nm and the sample being clear when manually inspected.) | Solubility, Condition 5 Phosphate pH 7.5 [2]: + (denotes solubility at the given condition, as determined by UV absorbance being less than 0.1 AU at 340 nm and the sample being clear when manually inspected.)

CC[C@H](C)[C@H](NC(C)=O)C(=O)N[C@H]1CSSC[C@@H](C(=O)N[C@H](C(N)=O)[C@@H](C)O)NC(=O)[C@H](CCCNC(=N)N)NC(=O)[C@H](Cc2c[nH]cn2)NC(=O)[C@H](C)NC(=O)CNC(=O)[C@H](Cc2c[nH]c3ccccc23)NC(=O)[C@H](CC(=O)O)NC(=O)[C@H](CCC(N)=O)NC(=O)[C@H](Cc2c[nH]c3ccccc23)NC(=O)[C@H]([C@@H](C)CC)NC1=O [Compound 1] (Ac-ICIWQDWGAHRCT-NH2; disulfide 2-12)
IC50 ([1]; Table 2, read-out: CP hemolysis IC50): 150 nM | IC50 [1, 3]: < 250 nM | Solubility, Condition 1 Acetate pH 4 [2]: + (denotes solubility at the given condition, as determined by UV absorbance being less than 0.1 AU at 340 nm and the sample being clear when manually inspected.) | Solubility, Condition 2 Acetate pH 5 [2]: − (denotes lack of solubility at the given condition, as UV absorbance at 340 nm exceeds 0.1 AU and/or it is visibly turbid or contains particles.) | Solubility, Condition 3 Phosphate pH 6 [2]: − (denotes lack of solubility at the given condition, as UV absorbance at 340 nm exceeds 0.1 AU and/or it is visibly turbid or contains particles.) | Solubility, Condition 4 Phosphate pH 7 [2]: − (denotes lack of solubility at the given condition, as UV absorbance at 340 nm exceeds 0.1 AU and/or it is visibly turbid or contains particles.) | Solubility, Condition 5 Phosphate pH 7.5 [2]: − (denotes lack of solubility at the given condition, as UV absorbance at 340 nm exceeds 0.1 AU and/or it is visibly turbid or contains particles.)
